Results as given in paper PMC9822133, “Design, Synthesis and Antiproliferative Evaluation of Bis-Indole Derivatives with a Phenyl Linker: Focus on Autophagy” (Molecules, 2022).

Legend:
[1] = system: A549 cells; test: Annexin V/PI staining; format: cell-based, human
Method: Phosphatidylserine (PS), normally localized in the inner leaflet of the cell membrane, is translocated on the outer surface during induction of apoptosis. Annexin V/PI double staining was performed to analyze the externalization of PS on the outer plasmatic membrane surface together with cell population diversification (An^−/PI^−—living cells; An^+/PI^- early apoptotic cells; An^+/PI^+—late apoptotic/necrotic cells, and An^−/PI^+—dead cells). […] The A549 lung human alveolar adenocarcinoma cells were seeded at a density of 2 × 10^5/dish. After 24 h incubation, the cells were treated with indole phytoalexin 49 at 20 µM concentration alone or after 1 h pre-treatment with chloroquine (20 µM), and the control group with DMSO (v/v 0.02%). The whole population of treated cells (adherent and floating) was harvested at three different times (24, 48 and 72 h), washed with PBS and stained with Annexin V-Alexa Fluor® 647 antibody (Thermo Scientific, Rockford, IL, USA) in binding buffer for 20 min in the dark at RT. After the wash step, samples were stained with 1 μL of propidium iodide (final concentration 25 μg/mL) for 5 min and analyzed using a BD FACSCalibur^TM Flow Cytometer (Becton Dickinson, San Jose, CA, USA). Three independent analyses were performed.

[2] = system: glutathione peroxidase (GPx); test: GPx activity in treated A549 cells; format: cell-based, human; settings: A549, 20 µM
Description: Glutathione is an important intracellular molecule involved in carcinogen detoxification. On the other hand, its elevated state in cancer cells is often associated with resistance to chemotherapy. […] Because high levels of GSH are associated with cancer cell resistance, the GHS-depleting effect of compound 49 could be interesting due to new cancer chemosensitizer development. In the case of GST and GR, we hypothesize that an increase in the activity of both enzymes may be a compensatory mechanism induced by GSH depletion.
Both floating and adherent A549 cells were harvested at 24, 48, and 72 h after treatment with compound 49 (20 µM). SOD determination kit, Glutathione Peroxidase Cellular Activity Assay kit, Glutathione Reductase Assay Kit and Glutathione-S-transferase (GST) Assay Kit (all Sigma Aldrich, Germany) were used for the detection of relevant enzyme activity. Reduced glutathione (GSH) content was measured by the method originally described by Floreani et al.. Assays were performed on an M 501 single beam UV/VIS spectrophotometer (Spectronic Camspec Ltd., Leeds, United Kingdom). All measured parameters were calculated per milligram or gram of protein determined using the bicinchoninic acid assay.

[3] = system: Caco-2; test: MTT screening assay, Caco-2; format: cell-based; settings: Homo sapiens, 72 h incubation
Description: The ability of newly synthesized indole phytoalexins to suppress cell proliferation was screened in vitro on eight cancer cell lines including human colorectal carcinoma (Caco-2 and HCT116), human cervical cancer (HeLa), human breast adenocarcinoma (MCF-7, MDA-MB-231), human alveolar adenocarcinoma (A549) and human leukemic T cell lymphoma (Jurkat), and two non-cancer cell lines (MCF-10A, Cos-7).
The cell lines used for this study were Caco-2 (human colorectal adenocarcinoma cell line, American Type Culture Collection, Manassas, VA, USA (ATCC)), HCT116 (human colorectal carcinoma cells European Collection of Authenticated Cell Cultures, Salisbury, UK (ECACC)), HeLa (human cervical tumor cells, ECACC), MCF-7 (human breast tumor cells, ECACC), MDA-MB-231 (human breast tumor cells, ATCC), A549 (human lung carcinoma cells, ATCC), BLM (human melanoma lung metastases, a gift from prof. K. Smetana, Institute of Anatomy, Charles University in Prague), Jurkat (human leukemia cell line, ECACC), Cos-7 (immortalized monkey kidney fibroblasts, ATCC) and MCF-10A (human mammary epithelial cells, ATCC). Caco-2, MCF-7, BLM, Cos-7 and A549 cells were cultured in Dulbecco’s Modified Eagle’s Medium (DMEM) with high glucose and sodium pyruvate (GE Healthcare, Piscataway, NJ, USA); HCT116 lines, HeLa, MDA-MB-231 and Jurkat were cultured in RPMI-1640 medium; and MCF10A cells were cultured in high glucose DMEM/F12 (Dulbecco’s Modified Eagle’s Medium F12). The media were enriched with 10% fetal bovine serum (FBS) and a 1% solution of a mixture of antibiotics and antimycotics 1× HyClone™ (GE Healthcare, Chicago, IL, USA). DMEM/F12 medium was supplemented with epidermal growth factor (EGF) (20 ng/mL final), hydrocortisone (0.5 μg/mL final) and insulin (10 μg/mL final) (Sigma-Aldrich Chemie, Steinheim, Germany). The cells were placed in an incubator at 37 °C with humidified air containing 5% CO2.
The MTT assay is a colorimetric method used to quantify the metabolic activity of cells. MTT (3-(4,5-di-methylthiazol-2-yl)2,5-diphenyltetrazolium bromide) (Sigma-Aldrich Chemie, Steinheim, Germany) is reduced by oxidoreductases in the cytosol of cells to light-absorbing formazan, the presence of which can be measured spectrophotometrically and determines the half-maximal inhibitory concentration (IC50). A549 cells were seeded in […] culture plates at a density of 5 × 10^3 per well. […]
We also incubated the cells with chloroquine at concentrations of 5–20 µM, which was added 1 h before the addition of the test substance, and cisplatin at concentrations of 3–10 µM. […] After 24 h, the absorbance was measured at a wavelength of 540 nm using an automated Cytation™ 3 Cell Imaging Multi-Mode Reader (Biotek, Winooski, VT, USA). […]

## CC(C)(C)OC(=O)n1cc(CNC(=O)Nc2ccc(NC(=O)NCc3cn(C(=O)OC(C)(C)C)c4ccccc34)cc2)c2ccccc21 [Compound 49, N,N′-(1,4-phenylene)bis{N′-[1-(tert-butoxycarbonyl)indol-3-yl]methyl (urea)}]
[1]; A549, 20 µM, 24, 48 and 72 h, vs DMSO-treated control
  total PS externalization (Annexin V/PI): did not induce
[1]; A549, 49 20 µM + CQ 20 µM, all time points, vs DMSO, CQ or 49 alone
  number of cells in late apoptosis, combination with CQ: significantly increased
[2]; 24 h
  GPx: 0.148 ± 0.021 μkat/mg Prot
[2]; 48 h
  GPx: 0.139 ± 0.028 μkat/mg Prot
[2]; 72 h
  GPx: 0.077 ± 0.038 μkat/mg Prot
[3]
  IC50: 8.6 ± 0.9 µM
